Measured values from ChEMBL document CHEMBL2311477, “Alpha-heteroatom derivatized analogues of 3-(acetylhydroxyamino)propyl phosphonic acid (FR900098) as antimalarials” (J Med Chem, 2013).

Assays:
Plasmodium falciparum [1] = test: Antimalarial activity against chloroquine-sensitive Plasmodium falciparum 3D7 assessed as parasite growth inhibition; assay type: functional, organism-based
Plasmodium falciparum [2] = test: Antimalarial activity against Plasmodium falciparum K1 infected in human erythrocytes assessed as parasite growth inhibition; assay type: functional, organism-based
Escherichia coli = test: Inhibition of Escherichia coli DXR assessed as reduction of NADPH in NADP+ at 100 nM by spectrophotometric analysis
[3] = Inhibition of Escherichia coli DXR assessed as reduction of NADPH in NADP+ by spectrophotometric analysis
Plasmodium falciparum [4] = test: Antimalarial activity against Plasmodium falciparum 3D7 assessed as parasite growth inhibition; assay type: functional, organism-based

inhibition (Escherichia coli) [%]	IC50 ([3]; read-out: IC50) [nM]	SMILES	IC50 (Plasmodium falciparum [2]) [nM]	other results
–	–	CC(=O)N(O)Cc1ccccc1P(OCOC(=O)C(C)(C)C)OCOC(=O)C(C)(C)C	–	IC50 (Plasmodium falciparum [1]): 50000 nM
1.42	–	CC(=O)N(O)CCC(NC(=O)c1ccccc1)P(=O)(O)O (racemic)	49000	–
–	74.6	CC(=O)N(O)CCC(N=[N+]=[N-])P(=O)(O)O (racemic)	1980	–
–	–	CC(=O)N(O)CCC(Oc1ccccc1)P(=O)(O)O (racemic)	13000	IC50 [3]: Not Active
3.32	–	CC(=O)N(O)CCC(n1ccnn1)P(=O)(O)O (racemic)	8960	–
–	207	CC(=O)N(O)CCC(n1cc(C(C)(C)C)nn1)P(=O)(O)O (racemic)	7760	–
–	1130	CC(=O)N(O)CCC(n1cc(-c2ccccc2)nn1)P(=O)(O)O (racemic)	2750	–
1.3	–	CC(=O)N(O)CCC(NC(=O)Nc1ccccc1)P(=O)(O)O (racemic)	> 64000	–
–	–	O=CN(O)CCCP(=O)(O)O [FOSMIDOMYCIN]	–	IC50 (Plasmodium falciparum [4]): 1000 nM

SMILES	inhibition (Escherichia coli) [%]	IC50 ([3]; read-out: IC50) [nM]	IC50 (Plasmodium falciparum [2]) [nM]	other results
CC(=O)N(O)CCC(O)P(=O)(O)O (racemic)	–	52.2	1820	–
COC(CCN(O)C(C)=O)P(=O)(O)O (racemic)	4.14	–	4000	–
CC(=O)N(O)CCCP(=O)(O)O [FR-900098]	–	15.1	–	–
